Source: patent publication US20080214527A1, “Hiv Integrase Inhibitors” (priority 2005, published 2008)

How the values were obtained:
[1] = target: HIV integrase (Human immunodeficiency virus type 1 group M subtype B, UniProt P04585); assay: Integrase inhibition assay (substrate DNA/target DNA microtiter plate, OD 405 nm); assay type: biochemical
Method: The inhibitory activities of the present compounds against integrase were determined by the assay described below.
A substrate DNA solution (2 pmol/μl) and a target DNA solution (5 pmol/μl) were prepared by the same method as that described in Experimental Example 1 of WO 2004/024693. The DNA solutions were heated and then slowly cooled so that they were annealed with each complement. Each sequence of the substrate DNA and the target DNA is the same as described in the Experimental Example.
Streptavidin, obtained from Vector Laboratories, was dissolved in 0.1 M carbonate buffer (composition: 90 mM Na2CO3, 10 mM NaHCO3) at a concentration of 40 μg/ml. After coating each well of microtiter plates (obtained from NUNC) with 50 μl of the above solution at 4° C. over night, each well was washed twice with PBS (composition: […], 0.27 mM KCl, 0.43 mM Na2HPO4, 0.14 mM KH2PO4) and blocked with 300 μl of 1% skim milk in PBS for 30 min. Additionally, each well was washed twice with PBS and added with 50 μl of the substrate DNA solution (2 pmol/μl). The microtiter plates were kept at room temperature for 30 min. Then, each well was washed twice with PBS and once with H2O.
Subsequently, to the each well prepared above were added 51 μl of the reaction buffer prepared from 12 μl of the buffer (composition: 150 mM MOPS (pH 7.2), 75 mM MnCl2, 50 mM 2-mercaptoethanol, 25% glycerol, 500 μg/ml bovine serum albumin-fraction V) and 39 μl of the distilled water. Additionally, 9 μl of an integrase solution (30 pmol) was added thereto and the mixture was mixed well. To the well of negative control (NC) was added 9 μl of the integrase dilution buffer (composition: 20 mM MOPS (pH7.2), 400 mM potassium glutamate, 1 mM EDTA, 0.1% NP-40, 20% glycerol, 1 mM DTT, 4 M urea).
The microtiter plates were incubated at 30° C. for 1 hour. The reaction solution was removed and each well was washed three times with 250 μl of the wash buffer (composition: 150 mM MOPS (pH 7.2), 50 mM 2-mercaptoethanol, 25% glycerol, 500 μg/ml bovine serum albumin-fraction V).
Subsequently, to each well prepared above were added 53 μl of the reaction buffer prepared from 12 μl of the buffer (composition: 150 mM MOPS (pH 7.2), 75 mM MgCl2, 50 mM 2-mercaptoethanol, 25% glycerol, 500 μg/ml bovine serum albumin-fraction V) and 41 μl of the distilled water. Additionally, 6 μl of either a test compound in DMSO or DMSO for positive control (PC) was mixed well. After the microtiter plates were incubated at 30° C. for 30 minutes, 1 μl of target DNA (5 pmol/μl) was added to each well, and the reaction mixture was mixed well.
The microtiter plates were incubated at 30° C. for 10 minutes. The reaction solution was removed and each well was washed twice with PBS. Subsequently, each well of the microtiter plates was filled with 100 μl of anti-digoxigenin antibody labeled with alkaline phosphatase (Sheep Fab fragment: obtained from Boehringer) and incubated at 30° C. for 1 hour. Then, each well was washed twice with 0.05% Tween20 in PBS and once with PBS. Next, 150 μl of the Alkaline phosphatase reaction buffer (composition: 10 mM p-Nitrophenylphosphate (obtained from Vector Laboratories), 5 mM MgCl2, 100 mM NaCl, 100 mM Tris-HCl (pH 9.5)) was added to each well. The microtiter plates were incubated at 30° C. for 2 hours and the reaction was terminated by the addition of 50 μl of 1 N NaOH solution. The optical density (OD) at 405 nm of each well was measured and the percent inhibition was determined by the following expression.
The percent inhibition (%)=100[1−{(C abs.−NC abs.)/(PC abs.−NC abs.)}]
When the percent inhibition (%) is X % at a concentration of ×μg/ml and the percent inhibition (%) is Y % at a concentration of y μg/ml, one of which is more than 50% and the other is less than 50%, IC50 can be determined by the following expression.
IC50(μg/ml)=x−{(X−50)(x−y)/(X−Y)}

[2] = test system: HIV-1 (IIIB strain) in MT-4 cells; assay: MT4 assay: inhibition of virus-induced CPE in MT-4 cells (MTT method); assay type: cell-based; conditions: Human immunodeficiency virus 1, MT4, 96 h, 4-day incubation, read-out: anti-HIV activity EC50
Method: MT-4 cells (human T-cell line established by HTLV-I-induced transformation) were cultured in RPMI1640 medium supplemented with 10% fetal calf serum and kanamycin ([…]) in 5% CO2, humidified incubator at 37° C. The stock of HIV-1 was produced as follows. Molt-4 cells persistently infected with HIV-1 (IIIB strain) were cultured for 3 days and culture supernatant was collected. After removal of cells by centrifugation, the supernatant was passed through membrane filter ([…]) and stored as cell-free culture supernatant at −80° C. The infectivity of the stock virus was measured by MTT assay.
Anti-HIV activity in vitro of test compounds was assayed by inhibition of virus-induced CPE in MT-4 cells. MT-4 cells were suspended in culture medium at 2.5×10^5 cells/ml. The cell suspension ([…]) was added to each well of a 96 well flat-bottom microtiter plate containing serial 2-fold dilution of test compounds ([…]). HIV-1 ([…]) was added to each well (4-10 TCID50/well). After 4-day incubation at 37° C., the viability of MT-4 cells was determined by the MTT method using 3-(4,5-dimethylthiazol-2-yl)-2,5-diphenyltetrazolium bromide.
The absorbance (OD) of each well was measured at two wavelengths (560 and 690 nm). All data represent the average values of three wells. The concentration (conc.) achieving 50% protection of HIV replication (EC50) were calculated.

| Structure (SMILES) | IC50 [1] [nM] | EC50 [2] [nM] | melting point [°C] |
| --- | --- | --- | --- |
| COCC#Cc1cc(F)ccc1Cc1cnc2c(O)c(C(=O)NCCO)c(=O)n(C)c2c1 [Example 13, 7-[4-Fluoro-2-(3-methoxy-prop-1-ynyl)-benzyl]-4-hydroxy-1-methyl-2-oxo-1,2-dihydro-[1,5]naphthyridine-3-carboxylic acid(2-hydroxy-ethyl)-amide] | < 100 | 1 to 100 | – |
| Cn1c(=O)c(C(=O)NCCO)c(O)c2ncc(Cc3ccc(F)cc3COC(N)=O)cc21 | – | – | 238 to 240 |
| CN(Cc1cc(F)ccc1Cc1cnc2c(O)c(C(=O)NCCO)c(=O)n(C)c2c1)S(C)(=O)=O [Example 72, 7-{4-Fluoro-2-[(methanesulfonyl-methyl-amino)-methyl]-benzyl}-4-hydroxy-1-methyl-2-oxo-1,2-dihydro-[1,5]naphthyridine-3-carboxylic acid(2-hydroxy-ethyl)-amide] | < 100 | 1 to 100 | – |
| CCNC(=O)OCc1cc(F)ccc1Cc1cnc2c(O)c(C(=O)NCCO)c(=O)n(C)c2c1 | – | – | 180 to 182 |
| CC(=O)c1cc(F)ccc1Cc1cnc2c(O)c(C(=O)NCCO)c(=O)n(C)c2c1 [Example 17, 7-(2-Acetyl-4-fluoro-benzyl)-4-hydroxy-1-methyl-2-oxo-1,2-dihydro-[1,5]naphthyridine-3-carboxylic acid(2-hydroxy-ethyl)-amide] | < 100 | 1 to 100 | 212 to 215 |
| COCc1cc(F)ccc1Cc1cnc2c(O)c(C(=O)NCCO)c(=O)n(C)c2c1 [Example 25, 7-(4-Fluoro-2-methoxymethyl-benzyl)-4-hydroxy-1-methyl-2-oxo-1,2-dihydro-[1,5]naphthyridine-3-carboxylic acid(2-hydroxy-ethyl)-amide] | < 100 | 1 to 100 | – |
| Cn1c(=O)c(C(=O)NCCO)c(O)c2ncc(Cc3ccc(F)cc3OCCN3CCOCC3)cc21 [Example 9, 7-[4-Fluoro-2-(2-morpholin-4-yl-ethoxy)-benzyl]-4-hydroxy-1-methyl-2-oxo-1,2-dihydro-[1,5]naphthyridine-3-carboxylic acid(2-hydroxy-ethyl)-amide] | < 100 | 1 to 100 | 161 to 162 |
| CCNC(=O)OCc1cc(F)ccc1Cc1cnc2c(O)c(C(=O)NCCOC)c(=O)n(C)c2c1 | – | – | 157 to 159 |
| Cn1c(=O)c(C(=O)NCCO)c(O)c2ncc(Cc3ccc(F)cc3CN3CCCCS3(=O)=O)cc21 [Example 33, 7-[2-(1,1-Dioxo-1lambda*6*-[1,2]thiazinan-2-ylmethyl)-4-fluoro-benzyl]-4-hydroxy-1-methyl-2-oxo-1,2-dihydro-[1,5]naphthyridine-3-carboxylic acid(2-hydroxy-ethyl)-amide] | < 100 | 1 to 100 | – |
| COCCNC(=O)c1c(O)c2ncc(Cc3ccc(F)cc3COC(N)=O)cc2n(C)c1=O [Example 22, Carbamic acid 5-fluoro-2-[8-hydroxy-7-(2-methoxy-ethylcarbamoyl)-5-methyl-6-oxo-5,6-dihydro-[1,5]naphthyridin-3-ylmethyl]-benzyl ester] | < 100 | 1 to 100 | 180 to 183 |
| COCC#Cc1cc(F)ccc1Cc1cnc2c(O)c(C(=O)NCCOC)c(=O)n(C)c2c1 [Example 15, 7-[4-Fluoro-2-(3-methoxy-prop-1-ynyl)-benzyl]-4-hydroxy-1-methyl-2-oxo-1,2-dihydro-[1,5]naphthyridine-3-carboxylic acid(2-methoxy-ethyl)-amide] | < 100 | 1 to 100 | 179 to 180 |
